# Legend:
# [1] = tested on: IL-1B and IL-6 gene expression in rainbow trout macrophages; assay: RT-PCR of IL-1B and IL-6 in trout macrophages with different cyclodextrins (FIG. 4); type: cell-based; settings: trout macrophages stimulated 30 minutes to 24 hours
# Experimental: Trout macrophages were stimulated for 30 minutes to 24 hours with heptakis (2,6-di-O-methyl)-β-cyclodextrin (Heptakis); methyl-β-cyclodextrin (Methyl β); beta cyclodextrin (β CyD); 2-hydroxypropyl-β-cyclodextrin (Hydroxy β); 2-hydroxypropyl-α-cyclodextrin (Hydroxy α); gamma cyclodextrin (γ CyD). RNA was extracted and RT-PCR conducted with IL-1B and IL-6. 18s was a RNA loading control. Molecular weight standard in first lane
# Since there are various forms of cyclodextrins with different side groups that appear to have different effects in mammalian macrophages, the effects of different cyclodextrins on gene expression in the trout macrophage cell cultures were tested. Trout macrophages were stimulated for 30 minutes to 24 hours with heptakis (2,6-di-O-methyl)-β-cyclodextrin (Heptakis); methyl-β-cyclodextrin (Methyl β); beta cyclodextrin (β CyD); 2-hydroxypropyl-β-cyclodextrin (Hydroxy β; 2-hydroxypropyl-α-cyclodextrin (Hydroxy α); gamma cyclodextrin (γ CyD). RNA was extracted and RT-PCR conducted with IL-1B and IL-6.
# From these cell experiments, it was shown that cyclodextrin could up-regulate the innate immune system and could possibly be used as an immune agent to protect fish against pathogen challenges.
# zebrafish larvae [2] = assay: LPS challenge of zebrafish larvae bathed with cyclodextrin; type: in vivo; settings: zebrafish larvae 2 dpf, bath 67.5-500 μg/mL, then LPS 150 μg/mL Pseudomonas aeruginosa, mortality over 36 hours
# Experimental: (§1) FIGS. 5A and 5B show replicates of the effects of α-cyclodextrin at various concentrations on LPS challenge. Zebrafish larvae, 2 days post-fertilization, were bathed with 0, 67.5, 125, 250 or 500 μg/mL of alpha cyclodextrin. Zebrafish larvae were then bathed with a lethal concentration (100% mortality) of LPS (150 μg/mL—Pseudomonas aeruginosa) and assessed for mortality over 36 hours. FIGS. 5A and 5B show the cumulative mortality after challenge of zebrafish larvae treated with α-cyclodextrin
# as §1, with “6A” for “5A”, “6B” for “5B”, “β-cyclodextrin” for “α-cyclodextrin”, “challenge performed in replicate.” for “challenge.”, “beta” for “alpha”
# To test this, zebrafish larvae, 2 days post fertilization (dpf), were bathed with 0, 67.5, 125, 250 or 500 μg/mL of beta or alpha cyclodextrin. Zebrafish larvae were then bathed with a lethal concentration (i.e., 100% mortality) of bacterial lipopolysaccharide (LPS) (150 μg/mL Pseudomonas aeurginosa). […]
# zebrafish larvae [3] = assay: Larval viability during cyclodextrin treatment after first feeding; type: in vivo; settings: zebrafish larvae bathed with 500 μg/mL, recorded 10 days post first feeding
# Experimental: The larval viability during cyclodextrin treatment was explored. The survival during treatment was compared with normal larval growth condition after first feeding (day 5 post hatch). 6 independent batches by reproduction (84 embryos by batch) of zebrafish larvae were bathed with 0 (“Control”; normal larval growth condition) or 500 μg/mL of beta cyclodextrin (“β CyD”), alpha cyclodextrin (“α CyD”) or both (“β+α CyD”; 50/50% of each). Larval survival was recorded 10 days post first feeding ([…]) and was increased with all cyclodextrin treatments (FIG. 7).
# [4] = tested on: IL-1B gene expression in trout macrophages; assay: IL-1B gene expression in primary trout macrophage culture (QPCR); type: cell-based, rainbow trout; settings: trout macrophages stimulated 24 hours, LPS positive control
# Experimental: LPS is a positive stimulatory control. Macrophages were isolated from head kidneys of rainbow trout, plated and then stimulated with the preparations for 24 hours. RNA was extracted from cells and analyzed by QPCR for IL-1B expression. Data are means for 3 independent trials.
# Standard SYBR-green based methodology was used for anti-viral and pro-inflammatory gene expression in mucosal immune system (intestine/gills/skin/spleen) to evaluate effective dose and identify the effects of β-cyclodextrins on tissue activation profiles. Briefly, 2 μg of total RNA was used for cDNA synthesis (SuperScript® III, Invitrogen) and subsequently diluted with nuclease-free water to 1 ng/μL cDNA. Gene-specific high-melting temperature primers for genes of interest were designed using NCBI/Primer-BLAST suite. […] Quantitative expression data between different times were examined by one-way ANOVA using SPSS 17 statistical software and the differences were considered significant at p<0.05.
# A primary trout macrophage culture system was used to investigate how pathogens are recognized by the innate immune system in fish (MacKenzie et al., Developmental and Comparative Immunology 27:393-400 (2003); Iliev et al., Molecular Immunology 42:1215-1223 (2005); Iliev et al. FEBS Letters 579 (29):6519-6528 (2005)). […] RNA was extracted from cells and analyzed by QPCR for IL-1B expression. […]
# [5] = tested on: TNF, Mx, IL-6, IL-1B, TLR, IFN, CD18, PU1 gene expression in trout macrophages; assay: RT-PCR of immune genes in trout macrophages stimulated 24 hours (FIG. 3); type: cell-based, rainbow trout
# Experimental: Cells were stimulated for 24 hours and RNA extracted and RT-PCR conducted with TNF (tissue necrosis factor), Mx protein, IL-6 (interleukin 6), IL-1B (interleukin 1B), TLR (toll-like receptor), IFN (interferon), CD18 (cluster of differentiation 18), and PU1 (transcription factor PU1). 18S is a RNA loading control. Molecular weight standard in first lane.
# The effects of cyclodextrin on the expression of several other genes such as TNF and IL-6 that are also pro-inflammatory were studied (FIG. 3). […] Cells were stimulated for 24 hours and RNA extracted and RT-PCR conducted with TNF (tissue necrosis factor), Mx protein, IL-6 (interleukin 6), IL-1B (interleukin 1B), TLR (toll-like receptor), IFN (interferon), CD18 (cluster of differentiation 18), and PU1 (transcription factor PU1). 18S is a RNA loading control. Molecular weight standard is in the first lane.
# trout macrophages = assay: QBlue Cell Viability Assay (resazurin reduction) in trout macrophages; type: cell-based, rainbow trout; settings: same cells as FIG. 1, saponin positive control
# Source text: High fluorescence indicates no loss in cell viability. Cells were the same ones used in FIG. 1. Saponin is a positive control since it kills cells.
# A primary trout macrophage culture system was used to investigate how pathogens are recognized by the innate immune system in fish (MacKenzie et al., Developmental and Comparative Immunology 27:393-400 (2003); Iliev et al., Molecular Immunology 42:1215-1223 (2005); Iliev et al. FEBS Letters 579 (29):6519-6528 (2005)). In this system, macrophages can be stimulated by various compounds and the expression of immune genes such as interleukin 1 B (IL-1B) or tissue necrosis factor (TNF) can be assayed as a measure of the degree of inflammatory stimulation and, thus, activation of the innate immune system. The effect of nanoparticles on the immune system of trout as an indication of the possible harmful effects of these compounds on aquatic organisms was studied. This involved exposing the cultured trout macrophages to nanoparticles and looking for effects on IL-1B and interferon alpha (IFNa) gene expression. Bacterial lipopolysaccharide (LPS) was used as a positive stimulatory control. […] RNA was extracted from cells and analyzed by QPCR for IL-1B expression. […] The effect of beta cyclodextrin on any cell viability was determined using the QBlue Cell Viability Assay Kit (BioChain) and saponin as a positive control for cell death.
Compound,IL-1B expression [1],IL-6 expression [1],protection of larvae against lethal LPS challenge (zebrafish larvae [2]),larval survival versus control (zebrafish larvae [3]),IL-1B expression [4],most highly stimulated gene [5],cell viability (trout macrophages)
"COC[C@H]1O[C@@H]2O[C@H]3[C@H](O)[C@@H](OC)[C@@H](O[C@H]4[C@H](O)[C@@H](OC)[C@@H](O[C@H]5[C@H](O)[C@@H](OC)[C@@H](O[C@H]6[C@H](O)[C@@H](OC)[C@@H](O[C@H]7[C@H](O)[C@@H](OC)[C@@H](O[C@H]8[C@H](O)[C@@H](OC)[C@@H](O[C@H]1[C@H](O)[C@H]2OC)O[C@@H]8COC)O[C@@H]7COC)O[C@@H]6COC)O[C@@H]5COC)O[C@@H]4COC)O[C@@H]3COC [Heptakis, heptakis (2,6-di-O-methyl)-β-cyclodextrin]",stimulated,stimulated,,,,,
OC[C@H]1O[C@@H]2O[C@H]3[C@H](O)[C@@H](O)[C@@H](O[C@H]4[C@H](O)[C@@H](O)[C@@H](O[C@H]5[C@H](O)[C@@H](O)[C@@H](O[C@H]6[C@H](O)[C@@H](O)[C@@H](O[C@H]7[C@H](O)[C@@H](O)[C@@H](O[C@H]1[C@H](O)[C@H]2O)O[C@@H]7CO)O[C@@H]6CO)O[C@@H]5CO)O[C@@H]4CO)O[C@@H]3CO [alpha cyclodextrin],,,protected the larvae against the LPS,increased,,,
OC[C@H]1O[C@@H]2O[C@H]3[C@H](O)[C@@H](O)[C@@H](O[C@H]4[C@H](O)[C@@H](O)[C@@H](O[C@H]5[C@H](O)[C@@H](O)[C@@H](O[C@H]6[C@H](O)[C@@H](O)[C@@H](O[C@H]7[C@H](O)[C@@H](O)[C@@H](O[C@H]8[C@H](O)[C@@H](O)[C@@H](O[C@H]1[C@H](O)[C@H]2O)O[C@@H]8CO)O[C@@H]7CO)O[C@@H]6CO)O[C@@H]5CO)O[C@@H]4CO)O[C@@H]3CO [beta cyclodextrin],,,protected the larvae against the LPS,increased,potent stimulator of inflammatory gene expression,IL-1B,No effect on viability
OC[C@H]1O[C@@H]2O[C@H]3[C@H](O)[C@@H](O)[C@@H](O[C@H]4[C@H](O)[C@@H](O)[C@@H](O[C@H]5[C@H](O)[C@@H](O)[C@@H](O[C@H]6[C@H](O)[C@@H](O)[C@@H](O[C@H]7[C@H](O)[C@@H](O)[C@@H](O[C@H]8[C@H](O)[C@@H](O)[C@@H](O[C@H]9[C@H](O)[C@@H](O)[C@@H](O[C@H]1[C@H](O)[C@H]2O)O[C@@H]9CO)O[C@@H]8CO)O[C@@H]7CO)O[C@@H]6CO)O[C@@H]5CO)O[C@@H]4CO)O[C@@H]3CO [gamma cyclodextrin],most effective form,,,,,,
